# Tests used:
# [1] = MTT cell viability assay, HaCaT; assay type: cell-based, human; settings: HaCaT keratinocytes (normal cell line), HaCaT human keratinocytes, 50 µM
# Experimental: Twelve compounds (2a-e, 3a-d and 4a-c) at a concentration range of 50–5000 μM were tested for their antiproliferative potential against four human cancer cell lines (A375—melanotic melanoma, C32—amelanotic melanoma, DU145—prostate cancer androgen-independent, MCF-7/WT—breast adenocarcinoma) and two normal cell lines: Chinese Hamster Ovary (CHO-K1) and immortalized human keratinocytes from histologically normal skin (HaCaT).
# To determine the antiproliferative activity of newly synthesized compounds, the following cell lines were used: human melanotic melanoma cell line (A375), human amelanotic melanoma cell line (C32), human breast adenocarcinoma cell line (MCF-7/WT), human prostate cancer androgen-independent (DU145) and two normal cell lines: hamster ovarian (CHO-K1) and immortalized human keratinocytes from histologically normal skin (HaCaT). The cells were obtained from the cell line bank of the Department of Molecular and Cellular Biology, Wroclaw Medical University. A375, C32, MCF-7/WT, DU145 and HaCaT cells were grown in a monolayer cultured in Dulbecco’s Modified Eagle’s Medium (DMEM, Sigma-Aldrich, Poznań, Poland), supplemented with 10% of fetal bovine serum (FBS, Gibco, Paisley, UK) and 1% of antibiotics (penicillin/streptomycin, Sigma-Aldrich) and CHO-K1 were grown in HAM’s F-12 medium (Sigma-Aldrich), supplemented with 10% fetal bovine serum (FBS, Gibco) and 1% of antibiotics (penicillin/streptomycin, Sigma-Aldrich). Cell lines were cultured in the polystyrene flasks 25 or 75 cm^2 (Thermo Fisher Scientific, Waltham, MA, USA), which were stored in 37 °C and 5% CO2 in a humidified 95% atmosphere (SteriCult, Thermo Scientific, Alab). The cell medium was exchanged twice a week. The exponentially growing cells were used throughout the experiments. The cells were rinsed with phosphate-buffered saline (PBS, Sigma-Aldrich) and trypsinized by Trypsin-EDTA 0.25% solution (Sigma-Aldrich).
# The influence of the compounds was performed in a monolayer culture on cancer and normal cells. Compounds were initially dissolved in DMSO; further dilutions of the compound were performed in Dulbecco’s Modified Eagle’s Medium supplemented with 10% FBS. Compounds were tested in a 50–5000 µM concentration range. In the in vitro experiments, the concentrations of DMSO in the final solution of the compounds were used 0.05%; 0.1%; 0.5%; 1%, respectively.
# Cell viability was determined using the MTT colorimetric assay. All cell lines were seeded into 96-well plates to a density of 3 × 10^4 cells/well. After 24 h, the culture supernatants were removed and appropriate dilutions of compounds in the culture medium (200 µL/well) were added to the cells’ monolayer cultures and incubated for an additional 72 h. After 72 h of exposition to the compounds and the removal of the culture medium, cell viability was determined by reducing the yellow dye 3-(4,5-dimethyl-2-thiazol)-2,5-diphenyl-2H-tetrazolium bromide (MTT assay, Sigma Saint Louis, MO, USA; In Vitro Toxicology Assay) to a blue formazan product. The absorbance of the resulting solutions in three duplicate experiments was measured at the wavelength of 560 nm in a microplate reader (EnSpire, Perkin Elmer, Kraków, Poland). MTT assay is a colorimetric method that estimates the rate of metabolism in viable cells. Absorbance is directly proportional to the number of viable cells. All the experiments were performed three times and the mean absorbance values were calculated. The methodology for the evaluation of the growth of human cancer and normal cells was described previously. The cell viability in each group was expressed as a percentage of control (untreated) cells.
# M14 = experiment: cells; settings: Homo sapiens
structure (smiles),measurement,setting,value
"FC(F)(F)c1nc(Cl)c2sc(=S)n(-c3ccccc3)c2n1 [Compound 3b, 7-chloro-3-phenyl-5-(trifluoromethyl)[1, 3]thiazolo[4,5-d]pyrimidine-2(3H)-thione]","viability at 72 h, 50 µM",[1],20%
same,GI50,"M14; M14, read-out: log GI50 (converted)",2 µM
same,CC50,"M14; M14, read-out: log LC50 (converted)",8.32 µM
